These results are taken from ChEMBL document CHEMBL1681702, “Biological activity and ligand binding mode to the progesterone receptor of A-homo analogues of progesterone” (Bioorg Med Chem, 2011).

Calls of active or inactive are those of the source. No cut-off for these calls is given here.

Experiment [1] addresses T1, Mineralocorticoid receptor (Homo sapiens) (UniProt P08235).
T1 sequence (whole entry): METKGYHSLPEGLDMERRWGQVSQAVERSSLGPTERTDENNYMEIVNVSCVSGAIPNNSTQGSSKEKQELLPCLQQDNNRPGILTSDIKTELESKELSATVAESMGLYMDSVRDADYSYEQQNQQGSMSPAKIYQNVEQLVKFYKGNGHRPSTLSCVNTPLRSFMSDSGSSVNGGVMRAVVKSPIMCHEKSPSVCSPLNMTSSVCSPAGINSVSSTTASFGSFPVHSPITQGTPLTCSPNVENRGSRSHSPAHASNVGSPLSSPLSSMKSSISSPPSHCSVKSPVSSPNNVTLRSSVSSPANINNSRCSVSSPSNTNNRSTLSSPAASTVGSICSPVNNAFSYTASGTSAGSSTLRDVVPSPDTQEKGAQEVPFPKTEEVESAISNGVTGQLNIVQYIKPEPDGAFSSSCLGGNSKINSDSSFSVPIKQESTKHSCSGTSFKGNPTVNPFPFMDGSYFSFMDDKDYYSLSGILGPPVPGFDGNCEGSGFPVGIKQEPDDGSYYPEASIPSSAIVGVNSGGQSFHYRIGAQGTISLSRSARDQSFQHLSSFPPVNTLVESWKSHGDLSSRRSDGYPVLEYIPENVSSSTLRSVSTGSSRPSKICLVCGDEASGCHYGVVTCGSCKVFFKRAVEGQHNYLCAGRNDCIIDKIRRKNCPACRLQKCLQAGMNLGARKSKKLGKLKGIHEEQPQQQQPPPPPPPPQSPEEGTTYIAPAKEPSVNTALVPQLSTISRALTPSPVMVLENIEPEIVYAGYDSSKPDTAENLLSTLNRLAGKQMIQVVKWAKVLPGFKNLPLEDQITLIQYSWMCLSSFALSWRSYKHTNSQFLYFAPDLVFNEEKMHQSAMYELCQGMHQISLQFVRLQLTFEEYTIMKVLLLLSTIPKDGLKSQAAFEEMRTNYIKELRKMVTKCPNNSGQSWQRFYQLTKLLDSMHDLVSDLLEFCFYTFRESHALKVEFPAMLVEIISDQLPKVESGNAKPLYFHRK
Put plainly: Antagonist activity at human MR expressed in human Cos1 cells co-transfected with luciferase reporter gene linked to MMTV promoter and pCMV-LacZ vector assessed as effect on aldosterone-induced activity at 10^-5 M after 24 hrs. Format: functional, cell-based. In general terms: In a reporter assay the amount or activity of a reporter protein is the signal.

The target in experiment [2] is T2, Progesterone receptor (Homo sapiens) (UniProt P06401).
T2 sequence (whole entry): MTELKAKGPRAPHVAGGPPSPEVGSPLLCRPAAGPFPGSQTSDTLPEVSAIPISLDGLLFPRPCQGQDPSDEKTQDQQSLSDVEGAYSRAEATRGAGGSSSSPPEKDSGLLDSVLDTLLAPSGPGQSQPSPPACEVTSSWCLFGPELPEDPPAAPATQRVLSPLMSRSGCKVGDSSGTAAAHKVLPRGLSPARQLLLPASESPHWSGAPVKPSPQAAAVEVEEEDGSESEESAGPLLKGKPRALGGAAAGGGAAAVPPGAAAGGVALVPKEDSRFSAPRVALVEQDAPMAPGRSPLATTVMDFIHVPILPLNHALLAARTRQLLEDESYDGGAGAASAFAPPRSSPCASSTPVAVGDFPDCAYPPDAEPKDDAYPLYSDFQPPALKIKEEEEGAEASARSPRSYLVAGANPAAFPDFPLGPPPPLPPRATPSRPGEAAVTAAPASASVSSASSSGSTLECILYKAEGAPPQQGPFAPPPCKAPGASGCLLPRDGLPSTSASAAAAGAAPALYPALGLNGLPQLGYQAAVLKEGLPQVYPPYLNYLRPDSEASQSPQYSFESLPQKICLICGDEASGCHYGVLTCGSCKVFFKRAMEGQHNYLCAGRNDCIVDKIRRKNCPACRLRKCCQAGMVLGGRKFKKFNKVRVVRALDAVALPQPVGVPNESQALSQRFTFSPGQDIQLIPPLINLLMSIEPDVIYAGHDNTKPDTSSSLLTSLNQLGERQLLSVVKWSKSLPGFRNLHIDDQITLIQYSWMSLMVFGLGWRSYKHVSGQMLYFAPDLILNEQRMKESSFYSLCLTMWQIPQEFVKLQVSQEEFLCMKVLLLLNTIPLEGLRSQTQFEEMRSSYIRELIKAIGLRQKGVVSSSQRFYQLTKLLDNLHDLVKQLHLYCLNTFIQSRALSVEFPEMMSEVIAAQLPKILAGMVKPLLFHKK
Put plainly: Transactivation activity at human progesterone receptor isoform B expressed in human Cos1 cells co-transfected with luciferase reporter gene linked to MMTV promoter at 10^-7 M after 24 hrs. In kind it is cell-based.

Experiment [3] concerns the target T2, Progesterone receptor (Homo sapiens). Put plainly: Transactivation activity at human progesterone receptor isoform B expressed in human Cos1 cells co-transfected with luciferase reporter gene linked to MMTV promoter at 10^-6 M after 24 hrs. Format: cell-based.
The target is the same in experiment [4]. Put plainly: Agonist activity at human progesterone receptor in human T47D cells assessed as induction of Bcl-xL gene expression at 10^-6 M after 6 hrs by quantitative PCR. In kind it is functional, cell-based.
Experiment [5] deals with T1, Mineralocorticoid receptor (Homo sapiens). The experiment in a line: Transactivation activity at human MR expressed in human Cos1 cells co-transfected with luciferase reporter gene linked to MMTV promoter and pCMV-LacZ vector at 10^-5 M after 24 hrs. In kind it is cell-based.

Take `CC(=O)[C@H]1CC[C@H]2[C@@H]3CC=C4CC(=O)CCC[C@]4(C)[C@H]3CC[C@]12C`: the result in experiment [1] and in experiment [5] was inactive. Besides, the result in experiment [2], in experiment [3] and in experiment [4] was Active.
Turning to `CC(=O)[C@H]1CC[C@H]2[C@@H]3CC=C4CCC(=O)CC[C@]4(C)[C@H]3CC[C@]12C`, the outcome in experiment [1] and in experiment [5] was inactive. The result in experiment [2], in experiment [3] and in experiment [4] was Active.
